Data as given in the NIST ThermoML archive (doi:10.1021/je049808f).
± gives the expanded uncertainty stated by the source.

Key:
[1] = cn = amount concentration of the nth substance listed, in mol/dm3; settings: 100 kPa, Liquid
[2] = 298.15 K, Liquid

[I-].[NH4+] [ammonium iodide] + CO
[1]
Settings	mass density [kg/m3]	viscosity [mPa·s]
298.15 K, c1 = 0.1696	807.2 ± 1.1	0.597 ± 0.021
298.15 K, c1 = 0.3281	826.3 ± 1	0.628 ± 0.022
298.15 K, c1 = 0.4765	845.4 ± 1	0.674 ± 0.023
298.15 K, c1 = 0.5841	859.1 ± 0.9	0.692 ± 0.023
298.15 K, c1 = 0.5862	859.4 ± 0.9	0.688 ± 0.023
298.15 K, c1 = 0.7482	881.8 ± 0.8	0.737 ± 0.025
298.15 K, c1 = 0.8737	899.4 ± 0.8	0.771 ± 0.026
298.15 K, c1 = 0.9947	916.9 ± 0.7	0.802 ± 0.026
298.15 K, c1 = 1.105	933.34 ± 0.62	0.836 ± 0.027
298.15 K, c1 = 1.209	949.2 ± 0.6	0.865 ± 0.028
298.15 K, c1 = 1.334	968.4 ± 0.5	0.903 ± 0.029
298.15 K, c1 = 1.417	981.5 ± 0.4	0.93 ± 0.03
298.15 K, c1 = 1.507	996.2 ± 0.4	0.96 ± 0.031
303.15 K, c1 = 0.1686	802.6 ± 1.1	0.557 ± 0.02
303.15 K, c1 = 0.3262	821.6 ± 1.1	0.586 ± 0.02
303.15 K, c1 = 0.4739	840.8 ± 1	0.628 ± 0.022
303.15 K, c1 = 0.581	854.5 ± 0.9	0.648 ± 0.022
303.15 K, c1 = 0.7443	877.2 ± 0.8	0.688 ± 0.023
303.15 K, c1 = 0.8692	894.8 ± 0.8	0.719 ± 0.024
303.15 K, c1 = 0.9897	912.3 ± 0.7	0.749 ± 0.025
303.15 K, c1 = 1.099	928.8 ± 0.6	0.781 ± 0.026
303.15 K, c1 = 1.203	944.6 ± 0.6	0.809 ± 0.027
303.15 K, c1 = 1.327	963.8 ± 0.5	0.847 ± 0.028
303.15 K, c1 = 1.41	976.9 ± 0.5	0.868 ± 0.028
303.15 K, c1 = 1.5	991.6 ± 0.4	0.898 ± 0.029
308.15 K, c1 = 0.1676	797.9 ± 1.1	0.522 ± 0.019
308.15 K, c1 = 0.3018	813.9 ± 1.1	0.54 ± 0.019
308.15 K, c1 = 0.4712	836.1 ± 1	0.587 ± 0.02
308.15 K, c1 = 0.5799	850.1 ± 0.9	0.6 ± 0.021
308.15 K, c1 = 0.7404	872.6 ± 0.9	0.644 ± 0.022
308.15 K, c1 = 0.8647	890.2 ± 0.8	0.682 ± 0.023
308.15 K, c1 = 0.9847	907.6 ± 0.7	0.701 ± 0.024
308.15 K, c1 = 1.094	924.3 ± 0.7	0.729 ± 0.024
308.15 K, c1 = 1.197	940 ± 0.6	0.756 ± 0.025
308.15 K, c1 = 1.321	959.2 ± 0.5	0.789 ± 0.026
308.15 K, c1 = 1.403	972.3 ± 0.5	0.813 ± 0.027
308.15 K, c1 = 1.493	987 ± 0.4	0.84 ± 0.028
313.15 K, c1 = 0.1667	793.1 ± 1.2	0.49 ± 0.018
313.15 K, c1 = 0.3001	809.2 ± 1.1	0.506 ± 0.018
313.15 K, c1 = 0.4686	831.4 ± 1	0.551 ± 0.019
313.15 K, c1 = 0.5767	845.4 ± 1	0.563 ± 0.02
313.15 K, c1 = 0.7364	867.9 ± 0.9	0.604 ± 0.021
313.15 K, c1 = 0.8602	885.5 ± 0.8	0.631 ± 0.022
313.15 K, c1 = 0.9797	903 ± 0.7	0.658 ± 0.022
313.15 K, c1 = 1.089	920 ± 0.7	0.685 ± 0.023
313.15 K, c1 = 1.191	935.4 ± 0.6	0.71 ± 0.024
313.15 K, c1 = 1.315	954.6 ± 0.7	0.741 ± 0.025
313.15 K, c1 = 1.397	967.7 ± 0.6	0.763 ± 0.025
313.15 K, c1 = 1.486	982.4 ± 0.4	0.788 ± 0.026

CO [methanol]
[2]
Settings	mass density [kg/m3]	viscosity [mPa·s]
100 kPa	–	0.545 ± 0.019
101.33 kPa	786.2 ± 1.2	–

[I-].[K+] [potassium iodide] + CO
[1]
Settings	mass density [kg/m3]	viscosity [mPa·s]
298.15 K, c1 = 0.0906	800.8 ± 1.1	0.578 ± 0.02
298.15 K, c1 = 0.1458	809 ± 1.1	0.598 ± 0.021
298.15 K, c1 = 0.1806	814.3 ± 1.1	0.609 ± 0.021
298.15 K, c1 = 0.2451	824.3 ± 1	0.628 ± 0.022
298.15 K, c1 = 0.3767	845.3 ± 1	0.665 ± 0.023
298.15 K, c1 = 0.4151	851.6 ± 0.9	0.677 ± 0.023
298.15 K, c1 = 0.4787	862.2 ± 0.9	0.695 ± 0.023
298.15 K, c1 = 0.5381	872.4 ± 0.9	0.724 ± 0.024
298.15 K, c1 = 0.614	885.4 ± 0.8	0.737 ± 0.025
298.15 K, c1 = 0.6541	892.7 ± 0.8	0.75 ± 0.025
303.15 K, c1 = 0.0901	796.1 ± 1.2	0.539 ± 0.019
303.15 K, c1 = 0.1449	804.3 ± 1.1	0.558 ± 0.02
303.15 K, c1 = 0.1795	809.6 ± 1.1	0.568 ± 0.02
303.15 K, c1 = 0.2437	819.5 ± 1.1	0.587 ± 0.02
303.15 K, c1 = 0.3745	840.6 ± 1	0.62 ± 0.021
303.15 K, c1 = 0.4127	846.8 ± 1	0.631 ± 0.022
303.15 K, c1 = 0.476	857.5 ± 0.9	0.653 ± 0.022
303.15 K, c1 = 0.535	867.6 ± 0.9	0.664 ± 0.023
303.15 K, c1 = 0.6106	880.5 ± 0.8	0.685 ± 0.023
303.15 K, c1 = 0.6505	887.8 ± 0.8	0.697 ± 0.024
308.15 K, c1 = 0.0895	791.3 ± 1.2	0.504 ± 0.018
308.15 K, c1 = 0.1441	799.6 ± 1.1	0.522 ± 0.019
308.15 K, c1 = 0.1785	804.9 ± 1.1	0.532 ± 0.019
308.15 K, c1 = 0.2423	814.8 ± 1.1	0.548 ± 0.019
308.15 K, c1 = 0.3724	835.8 ± 1	0.58 ± 0.02
308.15 K, c1 = 0.4104	842 ± 1	0.59 ± 0.021
308.15 K, c1 = 0.4733	852.7 ± 0.9	0.615 ± 0.021
308.15 K, c1 = 0.5321	862.8 ± 0.9	0.623 ± 0.021
308.15 K, c1 = 0.6073	875.7 ± 0.8	0.639 ± 0.022
308.15 K, c1 = 0.647	883 ± 0.8	0.651 ± 0.022
313.15 K, c1 = 0.1432	794.8 ± 1.2	0.489 ± 0.018
313.15 K, c1 = 0.1774	800.1 ± 1.1	0.498 ± 0.018
313.15 K, c1 = 0.2409	810 ± 1.1	0.513 ± 0.018
313.15 K, c1 = 0.3704	831.1 ± 1	0.543 ± 0.019
313.15 K, c1 = 0.4081	837.2 ± 1	0.552 ± 0.019
313.15 K, c1 = 0.4707	847.8 ± 1	0.572 ± 0.02
313.15 K, c1 = 0.5291	858 ± 0.9	0.58 ± 0.02
313.15 K, c1 = 0.604	870.8 ± 0.9	0.598 ± 0.021
313.15 K, c1 = 0.6435	878.1 ± 0.8	0.608 ± 0.021
